Measurements: the NIST ThermoML archive (doi:10.1021/je700755t)
± gives the expanded uncertainty stated by the source.

Experiment: xn = mol fraction of the nth substance listed
Conditions: 101 kPa, Liquid; for viscosity: Capillary tube (Ostwald / Ubbelohde) method

CC(=O)O [acetic acid] + CN(C)C=O
Conditions	mass density [kg/m3]	viscosity [mPa·s]
303.15 K, x1 = 0.1004	950.1 ± 0.42	0.847 ± 0.008
303.15 K, x1 = 0.2009	961.18 ± 0.38	0.967 ± 0.009
303.15 K, x1 = 0.3012	972.65 ± 0.35	1.108 ± 0.009
303.15 K, x1 = 0.4014	984.49 ± 0.32	1.283 ± 0.01
303.15 K, x1 = 0.5014	996.33 ± 0.29	1.457 ± 0.011
303.15 K, x1 = 0.6014	1007.74 ± 0.3	1.613 ± 0.012
303.15 K, x1 = 0.7011	1018.12 ± 0.34	1.656 ± 0.012
303.15 K, x1 = 0.8008	1027.13 ± 0.38	1.582 ± 0.012
303.15 K, x1 = 0.9006	1034.47 ± 0.4	1.375 ± 0.011
303.15 K, x1 = 1	1038.66 ± 0.42	1.059 ± 0.009
313.15 K, x1 = 0.1004	940.75 ± 0.45	0.75 ± 0.008
313.15 K, x1 = 0.2009	951.76 ± 0.41	0.848 ± 0.008
313.15 K, x1 = 0.3012	963.18 ± 0.38	0.973 ± 0.009
313.15 K, x1 = 0.4014	974.95 ± 0.35	1.112 ± 0.009
313.15 K, x1 = 0.5014	986.68 ± 0.32	1.249 ± 0.01
313.15 K, x1 = 0.6014	997.98 ± 0.29	1.357 ± 0.011
313.15 K, x1 = 0.7011	1008.11 ± 0.31	1.39 ± 0.011
313.15 K, x1 = 0.8008	1016.84 ± 0.34	1.331 ± 0.011
313.15 K, x1 = 0.9006	1023.84 ± 0.37	1.166 ± 0.01
313.15 K, x1 = 1	1027.37 ± 0.39	0.92 ± 0.009
323.15 K, x1 = 0.1004	931.27 ± 0.47	0.669 ± 0.007
323.15 K, x1 = 0.2009	942.27 ± 0.44	0.752 ± 0.008
323.15 K, x1 = 0.3012	953.63 ± 0.41	0.85 ± 0.008
323.15 K, x1 = 0.4014	965.33 ± 0.38	0.965 ± 0.009
323.15 K, x1 = 0.5014	976.95 ± 0.35	1.071 ± 0.009
323.15 K, x1 = 0.6014	988.11 ± 0.32	1.157 ± 0.01
323.15 K, x1 = 0.7011	998.02 ± 0.29	1.18 ± 0.01
323.15 K, x1 = 0.8008	1006.49 ± 0.31	1.132 ± 0.01
323.15 K, x1 = 0.9006	1013.13 ± 0.34	1.002 ± 0.009
323.15 K, x1 = 1	1016.08 ± 0.35	0.804 ± 0.008
333.15 K, x1 = 0.1004	921.19 ± 0.51	0.597 ± 0.007
333.15 K, x1 = 0.2009	932.18 ± 0.47	0.673 ± 0.007
333.15 K, x1 = 0.3012	943.49 ± 0.44	0.755 ± 0.008
333.15 K, x1 = 0.4014	955.11 ± 0.41	0.843 ± 0.008
333.15 K, x1 = 0.5014	966.55 ± 0.38	0.935 ± 0.009
333.15 K, x1 = 0.6014	977.59 ± 0.35	0.998 ± 0.009
333.15 K, x1 = 0.7011	987.28 ± 0.32	1.015 ± 0.009
333.15 K, x1 = 0.8008	995.48 ± 0.3	0.976 ± 0.009
333.15 K, x1 = 0.9006	1001.78 ± 0.3	0.87 ± 0.008
333.15 K, x1 = 1	1005.04 ± 0.32	0.709 ± 0.008
343.15 K, x1 = 0.1004	911.56 ± 0.54	0.547 ± 0.007
343.15 K, x1 = 0.2009	922.54 ± 0.51	0.607 ± 0.007
343.15 K, x1 = 0.3012	933.82 ± 0.47	0.674 ± 0.007
343.15 K, x1 = 0.4014	945.35 ± 0.44	0.749 ± 0.008
343.15 K, x1 = 0.5014	956.68 ± 0.41	0.824 ± 0.008
343.15 K, x1 = 0.6014	967.55 ± 0.38	0.873 ± 0.008
343.15 K, x1 = 0.7011	977.06 ± 0.36	0.885 ± 0.008
343.15 K, x1 = 0.8008	984.99 ± 0.34	0.852 ± 0.008
343.15 K, x1 = 0.9006	990.93 ± 0.32	0.764 ± 0.008
343.15 K, x1 = 1	993.69 ± 0.32	0.632 ± 0.007
353.15 K, x1 = 0.1004	901.58 ± 0.57	0.499 ± 0.007
353.15 K, x1 = 0.2009	912.55 ± 0.54	0.551 ± 0.007
353.15 K, x1 = 0.3012	923.82 ± 0.5	0.608 ± 0.007
353.15 K, x1 = 0.4014	935.28 ± 0.47	0.67 ± 0.007
353.15 K, x1 = 0.5014	946.48 ± 0.44	0.73 ± 0.008
353.15 K, x1 = 0.6014	957.19 ± 0.41	0.771 ± 0.008
353.15 K, x1 = 0.7011	966.49 ± 0.39	0.78 ± 0.008
353.15 K, x1 = 0.8008	974.17 ± 0.37	0.751 ± 0.008
353.15 K, x1 = 0.9006	979.73 ± 0.36	0.677 ± 0.008
353.15 K, x1 = 1	982.95 ± 0.35	0.57 ± 0.007

O=CO [formic acid] + CN(C)C=O
Conditions	mass density [kg/m3]	viscosity [mPa·s]
303.15 K, x1 = 0.1001	953.65 ± 0.31	0.831 ± 0.008
303.15 K, x1 = 0.2	969.23 ± 0.29	0.93 ± 0.009
303.15 K, x1 = 0.3001	986.66 ± 0.26	1.048 ± 0.009
303.15 K, x1 = 0.4	1006.16 ± 0.26	1.186 ± 0.01
303.15 K, x1 = 0.4999	1027.99 ± 0.33	1.324 ± 0.011
303.15 K, x1 = 0.6003	1053.17 ± 0.42	1.466 ± 0.012
303.15 K, x1 = 0.7005	1081.71 ± 0.52	1.555 ± 0.013
303.15 K, x1 = 0.7998	1115.25 ± 0.64	1.562 ± 0.013
303.15 K, x1 = 0.9002	1157.02 ± 0.79	1.533 ± 0.013
303.15 K, x1 = 1	1205.07 ± 0.96	1.437 ± 0.013
313.15 K, x1 = 0.1001	943.97 ± 0.34	0.738 ± 0.008
313.15 K, x1 = 0.2	959.57 ± 0.31	0.815 ± 0.008
313.15 K, x1 = 0.3001	977.07 ± 0.28	0.92 ± 0.009
313.15 K, x1 = 0.4	996.43 ± 0.25	1.028 ± 0.009
313.15 K, x1 = 0.4999	1018.12 ± 0.31	1.143 ± 0.01
313.15 K, x1 = 0.6003	1043.03 ± 0.39	1.253 ± 0.011
313.15 K, x1 = 0.7005	1071.28 ± 0.49	1.313 ± 0.011
313.15 K, x1 = 0.7998	1104.39 ± 0.61	1.342 ± 0.012
313.15 K, x1 = 0.9002	1145.58 ± 0.75	1.33 ± 0.012
313.15 K, x1 = 1	1192.81 ± 0.92	1.205 ± 0.012
323.15 K, x1 = 0.1001	934.86 ± 0.36	0.662 ± 0.007
323.15 K, x1 = 0.2	950.34 ± 0.33	0.725 ± 0.008
323.15 K, x1 = 0.3001	967.77 ± 0.3	0.808 ± 0.008
323.15 K, x1 = 0.4	986.86 ± 0.28	0.898 ± 0.009
323.15 K, x1 = 0.4999	1008.39 ± 0.29	0.992 ± 0.009
323.15 K, x1 = 0.6003	1033.04 ± 0.37	1.076 ± 0.01
323.15 K, x1 = 0.7005	1060.99 ± 0.46	1.121 ± 0.01
323.15 K, x1 = 0.7998	1093.73 ± 0.58	1.14 ± 0.011
323.15 K, x1 = 0.9002	1134.05 ± 0.72	1.117 ± 0.011
323.15 K, x1 = 1	1180.63 ± 0.89	1.022 ± 0.01
333.15 K, x1 = 0.1001	924.58 ± 0.38	0.59 ± 0.007
333.15 K, x1 = 0.2	939.91 ± 0.35	0.649 ± 0.007
333.15 K, x1 = 0.3001	957.33 ± 0.33	0.72 ± 0.008
333.15 K, x1 = 0.4	976.15 ± 0.3	0.793 ± 0.008
333.15 K, x1 = 0.4999	997.5 ± 0.27	0.867 ± 0.009
333.15 K, x1 = 0.6003	1021.94 ± 0.34	0.933 ± 0.009
333.15 K, x1 = 0.7005	1049.51 ± 0.44	0.971 ± 0.009
333.15 K, x1 = 0.7998	1081.77 ± 0.55	0.982 ± 0.01
333.15 K, x1 = 0.9002	1121.74 ± 0.69	0.959 ± 0.01
333.15 K, x1 = 1	1167.44 ± 0.85	0.879 ± 0.009
343.15 K, x1 = 0.1001	915.36 ± 0.4	0.538 ± 0.007
343.15 K, x1 = 0.2	930.7 ± 0.38	0.587 ± 0.007
343.15 K, x1 = 0.3001	947.93 ± 0.35	0.643 ± 0.007
343.15 K, x1 = 0.4	966.58 ± 0.32	0.708 ± 0.008
343.15 K, x1 = 0.4999	987.75 ± 0.29	0.768 ± 0.008
343.15 K, x1 = 0.6003	1011.92 ± 0.32	0.823 ± 0.008
343.15 K, x1 = 0.7005	1039.13 ± 0.41	0.85 ± 0.009
343.15 K, x1 = 0.7998	1070.96 ± 0.52	0.857 ± 0.009
343.15 K, x1 = 0.9002	1110.03 ± 0.66	0.835 ± 0.009
343.15 K, x1 = 1	1154.99 ± 0.82	0.766 ± 0.009
353.15 K, x1 = 0.1001	905.11 ± 0.43	0.492 ± 0.007
353.15 K, x1 = 0.2	920.26 ± 0.4	0.534 ± 0.007
353.15 K, x1 = 0.3001	937.3 ± 0.37	0.582 ± 0.007
353.15 K, x1 = 0.4	955.9 ± 0.34	0.635 ± 0.007
353.15 K, x1 = 0.4999	976.91 ± 0.32	0.693 ± 0.008
353.15 K, x1 = 0.6003	1000.84 ± 0.29	0.732 ± 0.008
353.15 K, x1 = 0.7005	1027.78 ± 0.38	0.754 ± 0.008
353.15 K, x1 = 0.7998	1059.18 ± 0.49	0.756 ± 0.008
353.15 K, x1 = 0.9002	1097.86 ± 0.63	0.736 ± 0.008
353.15 K, x1 = 1	1142.08 ± 0.78	0.677 ± 0.008
